# Test results reported in patent publication US20050261197A1, “Coffee bean extract, method of extraction and composition containing the same” (priority 2004, published 2005).
# Experiments:
# [1] = system: Adjuvant Induced Arthritis in Rats; assay: Adjuvant-induced arthritis model in rats (paw weight, anti-inflammatory activity); assay type: in vivo, male Sprague-Dawley rats; conditions: oral gavage once per day for 11 days; for Raw Paw Weight: Day 11, group average
# Method: Adjuvant-induced arthritis responds to both steroids and non-steroids. The degree of inflammation will be assessed by measuring differences in foot weight and/or the foot volume.
# (§1) Rats weighting between 275-310 g were purchased from Animal Technologies Ltd., Kent, Wash. They were male Sprague-Dawley rats. The animals were kept individually in stainless steel cages with free access to water and feed (Harlan Teklan Rodent Diet). The light cycle was maintained at 12 hours light and 12 hours dark. The temperature was maintained at 22° C.±3° C. with a relative humidity of 40 to 70%.
# The composite was prepared by combining the isolated compounds genistein, flavionic acid, diadzien, diadzin and the peptide having the sequence Tyrosine-Glycine-Serine-Arginine-Serine. One milligram of each was mixed into 9 ml of distilled water and 1 ml of alcohol. The mixture was then diluted in order to deliver by daily gavage one and 10 mcg doses per kilo body weight.
# (§2) The test materials were delivered orally (by gavage) once per day for 11 days.
# Male Sprague-Dawley rats (275-310 g) were sensitized by injecting Fruend's complete adjuvant (0.5% suspension of killed mycobacterium tuberculosis (H37RA, Difco, in mineral oil)). A 0.1 ml aliquot was administered intradermally at a plantar site on the right hind leg of each rat.
# (§3) The test materials were given orally (by gavage) to each of 5 rats per treatment group once per day for 11 days. Administration of the test materials was initiated on the day of induction of inflammation.
# (§4) The left hind paw was measured just before sensitization and again on Day 11. The plantar edema inhibitory rate and the body weight gain rate were determined by comparison with the non-sensitized rat groups.
# The paw weights for each group were averaged. Anti-inflammatory activity was determined by comparing paw weights calculated as follows: [formula]
# Hydrocortisone was used as a positive control. It is a common anti-inflammatory given to rheumatoid arthritis patients at a dose of 10 mg/kg body weight. The composite of the invention was given at 10 mcg/kg and 1 mcg/kg body weight.
# [2] = 11-day body weight gain of rats in the adjuvant-induced arthritis study; assay type: in vivo, male Sprague-Dawley rats; conditions: for Avg. Final Body wt. / Avg. Weight Gain: oral gavage once per day for 11 days
# Method: as §1, §2, §3, §4
compound,measurement,setting,value
C[C@]12CCC(=O)C=C1CC[C@@H]1[C@@H]2[C@@H](O)C[C@@]2(C)[C@H]1CC[C@]2(O)C(=O)CO [Hydrocortisone],Raw Paw Weight,[1]; 1 mcg/kg body wt.,0.80 g
same,Raw Paw Weight,[1]; 10 mcg/kg body wt.,0.76 g
same,inhibition at 0.001 mg/kg,"[1]; Rattus norvegicus, 264 h, 1 mcg/kg body wt., calculated from paw weights",50%
same,inhibition at 0.01 mg/kg,"[1]; Rattus norvegicus, 264 h, 10 mcg/kg body wt., calculated from paw weights",58%
same,Avg. Final Body wt.,[2]; 1 mcg/kg body wt.,331.0 g
same,Avg. Weight Gain,[2]; 1 mcg/kg body wt.,31.4 g
same,reduction in weight gain,"[2]; 10 mcg/kg body weight, 11 days, versus controls",~50%
same,Avg. Final Body wt.,[2]; 10 mcg/kg body wt.,317.0 g
same,Avg. Weight Gain,[2]; 10 mcg/kg body wt.,23.6 g
